These results are taken from patent publication US20230265151A1, “GIP/GLP1 CO-AGONIST COMPOUNDS” (priority 2020, published 2023).

What all share (type): cell-based
One experiment concerns the target T1, hGIPR (Homo sapiens, UniProt P48546).
T1 construct: expressed in transfected cells
T1 sequence (P48546 22-466): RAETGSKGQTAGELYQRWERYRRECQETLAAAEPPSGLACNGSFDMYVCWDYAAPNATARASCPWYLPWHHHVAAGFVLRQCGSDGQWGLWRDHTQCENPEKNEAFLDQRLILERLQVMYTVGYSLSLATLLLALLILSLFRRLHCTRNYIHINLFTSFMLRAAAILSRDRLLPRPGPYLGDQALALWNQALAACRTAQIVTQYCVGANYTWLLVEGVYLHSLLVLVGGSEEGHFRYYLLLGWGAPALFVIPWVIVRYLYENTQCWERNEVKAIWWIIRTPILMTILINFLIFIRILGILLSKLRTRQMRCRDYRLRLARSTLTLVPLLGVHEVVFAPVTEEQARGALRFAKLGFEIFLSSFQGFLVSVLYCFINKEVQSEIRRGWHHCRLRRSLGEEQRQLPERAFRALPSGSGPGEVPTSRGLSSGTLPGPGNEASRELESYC
Put plainly: Functional cAMP formation (HTRF) in HEK-293 clonal cells expressing hGIPR, 0.1% bovine casein, without or with 1.0% human serum albumin. The following applies: for Emax: percent of maximal response to GIP(1-42)NH2; for EC50: cAMP. In outline: (§1)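 Cells were stimulated with peptide for 30 min at 37° C, then lysed in buffer carrying cAMP-d2 and anti-cAMP Eu3+-cryptate for a competitive HTRF read after at least 60 min at room temperature. The 665/620 nm ratio was converted to nM cAMP against a standard curve.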

For a further experiment, the target named is T2, hGCGR (Homo sapiens, UniProt P47871).
T2 construct: expressed in transfected cells
T2 sequence (P47871 26-477): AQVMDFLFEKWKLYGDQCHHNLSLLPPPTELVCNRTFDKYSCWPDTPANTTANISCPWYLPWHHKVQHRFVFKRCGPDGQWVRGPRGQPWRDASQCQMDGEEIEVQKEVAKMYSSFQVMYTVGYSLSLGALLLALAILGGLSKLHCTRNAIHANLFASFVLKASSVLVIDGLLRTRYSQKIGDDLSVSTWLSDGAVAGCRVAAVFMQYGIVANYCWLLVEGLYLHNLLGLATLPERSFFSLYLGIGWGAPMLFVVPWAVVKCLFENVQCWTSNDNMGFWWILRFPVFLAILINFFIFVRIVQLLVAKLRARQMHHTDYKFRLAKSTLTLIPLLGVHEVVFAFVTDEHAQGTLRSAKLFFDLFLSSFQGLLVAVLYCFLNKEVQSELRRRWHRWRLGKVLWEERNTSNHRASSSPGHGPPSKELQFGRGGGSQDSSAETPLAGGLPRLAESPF
In words: Functional cAMP formation (HTRF) in HEK-293 clonal cells expressing hGCGR, 0.1% bovine casein, without or with 1.0% human serum albumin. The following applies: 37° C. An outline of the steps: as §1
(Cyclic AMP is a second messenger, typically raised through Gs and lowered through Gi signalling.)

Another experiment has as its target hGLP-1R (Homo sapiens, UniProt P43220). Put plainly: Functional cAMP formation (HTRF) in HEK-293 clonal cells expressing hGLP-1R, 0.1% bovine casein, without or with 1.0% human serum albumin. Details: expressed in transfected cells. The following applies: 37° C.; for EC50: cAMP; for Emax: HEK293, cAMP, percent of maximal response to GLP-1(7-36)NH2, read-out: hGLP-1R Emax, % ± SEM. An outline of the steps: as §1

[1] abbreviates: HEK293, cAMP, 37° C., 0.1% bovine casein and 1.0% human serum albumin, read-out: hGIPR Emax, % ± SEM.
[2] abbreviates: HEK293, cAMP, 37° C., 0.1% bovine casein, arithmetic mean, read-out: hGIPR Emax, % ± SEM.
Where [3] appears, read: 37° C., 0.1% bovine casein (no human serum albumin), geometric mean, read-out: hGIPR EC50, nM (SEM, n).
The mark [4] stands for this setting: cAMP, 0.1% bovine casein (no human serum albumin), geometric mean, read-out: hGCGR EC50, nM (SEM, n).
[5] abbreviates: cAMP, 0.1% bovine casein and 1.0% human serum albumin, geometric mean (SEM, n), read-out: hGCGR EC50, nM (SEM, n).
The mark [6] stands for this setting: 0.1% bovine casein (no human serum albumin), geometric mean, read-out: hGLP-1R EC50, nM (SEM, n).
Setting [7] is: 0.1% bovine casein and 1.0% human serum albumin.

Where two headings read alike, the source gives them in different places.

hGLP-1R, sequence (P43220 24-463): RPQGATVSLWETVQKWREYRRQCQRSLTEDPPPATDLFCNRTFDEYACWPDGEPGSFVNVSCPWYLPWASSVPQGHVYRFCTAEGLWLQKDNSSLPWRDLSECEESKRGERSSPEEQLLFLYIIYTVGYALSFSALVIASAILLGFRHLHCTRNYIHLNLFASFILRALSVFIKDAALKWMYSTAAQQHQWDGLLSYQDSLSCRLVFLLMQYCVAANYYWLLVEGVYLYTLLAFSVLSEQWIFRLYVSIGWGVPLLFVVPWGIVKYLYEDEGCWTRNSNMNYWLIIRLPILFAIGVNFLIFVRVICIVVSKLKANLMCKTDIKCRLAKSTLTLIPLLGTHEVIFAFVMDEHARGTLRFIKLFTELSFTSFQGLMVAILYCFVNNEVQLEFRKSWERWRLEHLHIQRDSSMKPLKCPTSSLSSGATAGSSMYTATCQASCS

As a reminder, the Emax is the greatest response seen or fitted, relative to the assay's reference. Broadly, the EC50 is the concentration at which the effect is half-maximal. Regarding `CCCC[C@H](NC(=O)[C@H](CC(=O)O)NC(=O)[C@H](CO)NC(=O)[C@@H](NC(=O)[C@](C)(Cc1ccccc1F)NC(=O)[C@@H](NC(=O)CNC(=O)[C@H](CCC(=O)O)NC(=O)C(C)(C)NC(=O)[C@@H](N)Cc1ccc(O)cc1)[C@@H](C)O)[C@@H](C)O)C(=O)N[C@@H](CO)C(=O)N[C@H](C(=O)N[C@@](C)(CC(C)C)C(=O)N[C@@H](CC(C)C)C(=O)N[C@@H](CC(=O)O)C(=O)N[C@@H](CCCN)C(=O)N[C@@H](CCCCNC(=O)COCCOCCNC(=O)COCCOCCNC(=O)CC[C@H](NC(=O)CCCCCCCCCOc1ccc(C(=O)O)cc1)C(=O)O)C(=O)N[C@@H](C)C(=O)N[C@@H](CCC(N)=O)C(=O)NC(C)(C)C(=O)N[C@@H](CCCCNC(=O)COCCOCCNC(=O)COCCOCCNC(=O)CC[C@H](NC(=O)CCCCCCCCCOc1ccc(C(=O)O)cc1)C(=O)O)C(=O)N[C@@H](Cc1ccccc1)C(=O)N[C@H](C(=O)N[C@H](CCC(=O)O)C(=O)N[C@@](C)(Cc1ccc(O)cc1)C(=O)N[C@@H](CC(C)C)C(=O)N[C@H](C(=O)N[C@@H](CCC(=O)O)C(=O)NCC(=O)NCC(=O)N1CCC[C@H]1C(=O)N[C@@H](CO)C(=O)N[C@@H](CO)C(=O)NCC(=O)N[C@@H](C)C(=O)N1CCC[C@H]1C(=O)N1CCC[C@H]1C(=O)N1CCC[C@H]1C(=O)N[C@@H](CO)C(N)=O)[C@@H](C)CC)[C@@H](C)CC)[C@@H](C)CC` [Example 321], on hGIPR (HEK293, read-out: hGIPR Emax, % ± SEM, 0.1% bovine casein and 1.0% human serum albumin, 37° C.), the Emax turned out to be 94.5%. The concentration giving a half-maximal response (EC50) at hGIPR (hGIPR EC50, nM (SEM, n), 37° C., 0.1% bovine casein (no human serum albumin), geometric mean) was 0.0107 nM; on hGCGR (hGCGR EC50, nM (SEM, n), 0.1% bovine casein and 1.0% human serum albumin, geometric mean) it was over 9950 nM; at hGCGR (hGCGR EC50, nM (SEM, n), cAMP, 0.1% bovine casein (no human serum albumin), geometric mean), over 9950 nM; at hGLP-1R (hGLP-1R EC50, nM (SEM, n), 0.1% bovine casein (no human serum albumin), geometric mean) it was 0.295 nM.
As to `CC[C@H](C)[C@H](NC(=O)[C@H](CC(C)C)NC(=O)[C@](C)(Cc1ccc(O)cc1)NC(=O)[C@@H](CCC(=O)O)NC(=O)[C@@H](NC(=O)[C@H](Cc1ccccc1)NC(=O)[C@H](CCCCNC(=O)COCCOCCNC(=O)CC[C@H](NC(=O)CCCCCCCCCCCCC(=O)O)C(=O)O)NC(=O)C(C)(C)NC(=O)[C@H](CCC(N)=O)NC(=O)[C@H](C)NC(=O)[C@H](CCCCNC(=O)COCCOCCNC(=O)CC[C@H](NC(=O)CCCCCCCCCCCCC(=O)O)C(=O)O)NC(=O)[C@H](CCCN)NC(=O)[C@H](CC(=O)O)NC(=O)[C@H](CC(C)C)NC(=O)[C@](C)(CC(C)C)NC(=O)[C@@H](NC(=O)C(C)(C)NC(=O)[C@@H](NC(=O)[C@H](CC(=O)O)NC(=O)[C@H](CO)NC(=O)[C@@H](NC(=O)[C@](C)(Cc1ccccc1F)NC(=O)[C@@H](NC(=O)CNC(=O)[C@H](CCC(=O)O)NC(=O)C(C)(C)NC(=O)[C@@H](N)Cc1ccc(O)cc1)[C@@H](C)O)[C@@H](C)O)C(C)C)[C@@H](C)CC)[C@@H](C)CC)C(=O)N[C@@H](CCC(=O)O)C(=O)NCC(=O)NCC(=O)N1CCC[C@H]1C(=O)N[C@@H](CO)C(=O)N[C@@H](CO)C(=O)NCC(=O)N[C@@H](C)C(=O)N1CCC[C@H]1C(=O)N1CCC[C@H]1C(=O)N1CCC[C@H]1C(=O)N[C@@H](CO)C(N)=O` [Example 398], the values for the Emax on hGIPR (setting [1]) and at hGIPR (setting [2]) were 91.9% and 97.4%, respectively. Also, the EC50 is 0.0166 nM on hGIPR (setting [3]); over 9950 nM on hGCGR (setting [4]); over 9950 nM at hGCGR (setting [5]); 0.215 nM on hGLP-1R (setting [6]); 41.3 nM at hGLP-1R (0.1% bovine casein and 1.0% human serum albumin, geometric mean (SEM, n), read-out: hGLP-1R EC50, nM (SEM, n)).
In the case of `CC[C@H](C)[C@H](NC(=O)[C@H](CCCN)NC(=O)[C@H](CC(=O)O)NC(=O)[C@H](CC(C)C)NC(=O)[C@](C)(CC(C)C)NC(=O)[C@@H](NC(=O)C(C)(C)NC(=O)[C@H](Cc1ccc(O)cc1)NC(=O)[C@H](CC(=O)O)NC(=O)[C@H](CO)NC(=O)[C@@H](NC(=O)[C@](C)(Cc1ccccc1F)NC(=O)[C@@H](NC(=O)CNC(=O)[C@H](CCC(=O)O)NC(=O)C(C)(C)NC(=O)[C@@H](N)Cc1ccc(O)cc1)[C@@H](C)O)[C@@H](C)O)[C@@H](C)CC)C(=O)N[C@@H](C)C(=O)N[C@@H](CCC(N)=O)C(=O)NC(C)(C)C(=O)N[C@@H](CCC(=O)O)C(=O)N[C@@H](Cc1ccccc1)C(=O)N[C@H](C(=O)N[C@@H](CCCCNC(=O)COCCOCCNC(=O)COCCOCCNC(=O)CC[C@H](NC(=O)COCCOCCNC(=O)CCCCCCCCCCCCC(=O)O)C(=O)O)C(=O)N[C@@](C)(Cc1ccc(O)cc1)C(=O)N[C@@H](CC(C)C)C(=O)N[C@H](C(=O)N[C@@H](CCCCNC(=O)COCCOCCNC(=O)COCCOCCNC(=O)CC[C@H](NC(=O)COCCOCCNC(=O)CCCCCCCCCCCCC(=O)O)C(=O)O)C(=O)NCC(=O)NCC(=O)N1CCC[C@H]1C(=O)N[C@@H](CO)C(=O)N[C@@H](CO)C(=O)NCC(=O)N[C@@H](C)C(=O)N1CCC[C@H]1C(=O)N1CCC[C@H]1C(=O)N1CCC[C@H]1C(=O)N[C@@H](CO)C(N)=O)[C@@H](C)CC)[C@@H](C)CC` [Example 363], the Emax at hGIPR (setting [1]) came out at 91.1%; at hGIPR (setting [2]), 111%; on hGLP-1R (setting [7]), 111%. For the same compound, the EC50 at hGIPR (setting [3]) is 0.0183 nM; at hGIPR (37° C., 0.1% bovine casein and 1.0% human serum albumin, geometric mean (SEM, n), read-out: hGIPR EC50, nM (SEM, n)), 0.976 nM; on hGCGR (setting [4]), over 9950 nM; on hGCGR (setting [5]), over 9950 nM; on hGLP-1R (setting [6]), 0.34 nM.
For the compound `CC[C@H](C)[C@H](NC(=O)[C@H](CC(C)C)NC(=O)[C@](C)(Cc1ccc(O)cc1)NC(=O)[C@@H](CCC(=O)O)NC(=O)[C@@H](NC(=O)[C@H](Cc1ccccc1)NC(=O)[C@H](CCCN)NC(=O)C(C)(C)NC(=O)[C@H](CCC(N)=O)NC(=O)[C@H](C)NC(=O)[C@H](CCCCNC(=O)COCCOCCNC(=O)COCCOCCNC(=O)CC[C@H](NC(=O)CCCCCCCCCCCCC(=O)O)C(=O)O)NC(=O)[C@H](CCCN)NC(=O)[C@H](CC(=O)O)NC(=O)[C@H](CC(C)C)NC(=O)[C@](C)(CC(C)C)NC(=O)[C@@H](NC(=O)C(C)(C)NC(=O)[C@@H](NC(=O)[C@H](CC(=O)O)NC(=O)[C@H](CO)NC(=O)[C@@H](NC(=O)[C@](C)(Cc1ccccc1F)NC(=O)[C@@H](NC(=O)CNC(=O)[C@H](CCC(=O)O)NC(=O)C(C)(C)NC(=O)[C@@H](N)Cc1ccc(O)cc1)[C@@H](C)O)[C@@H](C)O)C(C)C)[C@@H](C)CC)[C@@H](C)CC)C(=O)N[C@@H](CCCCNC(=O)COCCOCCNC(=O)COCCOCCNC(=O)CC[C@H](NC(=O)CCCCCCCCCCCCC(=O)O)C(=O)O)C(=O)NCC(=O)NCC(=O)N1CCC[C@H]1C(=O)N[C@@H](CO)C(=O)N[C@@H](CO)C(=O)NCC(=O)N[C@@H](C)C(=O)N1CCC[C@H]1C(=O)N1CCC[C@H]1C(=O)N1CCC[C@H]1C(=O)N[C@@H](CO)C(N)=O` [Example 350], the Emax at hGIPR (setting [1]) was found to be 73.5%; on hGLP-1R (setting [7]) it was 91.4%; at hGLP-1R (0.1% bovine casein, arithmetic mean) it was 95.9%. Also, the concentration for a half-maximal effect (EC50) on hGIPR (setting [3]) is 0.0288 nM; at hGCGR (setting [4]), over 9950 nM; on hGCGR (setting [5]) it was over 9950 nM; on hGLP-1R (setting [6]), 0.202 nM.
